Laboratory results: patent US9556113B2, “Combination uses of dichloroacetate and oxamate, and their prodrugs, for cancer treatment” (The South Dakota Board of Regents, priority 2014, dated 2017)
Where a name gives a salt, the structure may show the parent alone.

Experiments:
[1] = tested on: HPV+E6E7 Ras tumor (E6/E7/Ras MOEs cells); assay: Tumor response to cisplatin/radiation therapy (CRT), HPV positive HNSCC mouse model; type: in vivo, C57Bl/6 mice; settings: oxamate 15 mg/mouse; for tumor's response to CRT (tumor volume, FIG. 18): DCA 6 mg/mouse, daily i.p. on weekdays from day 11, with CRT
Experimental: FIG. 7 illustrates the effects of DCA plus oxamate on tumor growth (A) or on survival (B) with HPV+ model of HNSCC in wild-type C57Bl/6 mice. All mice received 3 rounds of cisplatin (0.132 mg/mouse) plus radiation (8 Gy/mouse) treatment (Tx) at weekly intervals starting […] after tumor initiation. Mice receiving DCA (6 mg/mouse) plus oxamate (15 mg/mouse) were treated every weekday, starting with the first chemoradiation treatment by i.p. injection.
FIG. 8 illustrates a comparison of prodrugs to DCA plus oxamate on tumor growth (A) or on survival (B) with HPV+ model of HNSCC in wild-type C57Bl/6 mice. All mice received 3 rounds of CRT [cisplatin (0.132 mg/mouse) plus radiation (8 Gy/mouse) treatment (Tx) at weekly intervals starting 11 days after tumor initiation]. Mice receiving DCA (6 mg/mouse) plus oxamate (2.2 mg/mouse) were treated every weekday starting with the first chemoradiation treatment by i.p. injection. Mice treated with AT-N4-001 or AT-N4-002 prodrugs (7.6 mg/mouse) were treated on the same schedule as mice treated with DCA+oxamate.
FIG. 18. The effects of DCA, oxamate, DCA plus oxamate on the responses of HPV+E6E7 Ras tumor to CRT. One million E6/E7/Ras MOEs cells were injected subcutaneously into the rear leg of wild-type C57Bl/6 mice. After 11 days, a treatment with DCA (6 mg/mouse) and oxamate (15 mg/mouse) were injected daily by i.p. on weekdays for the remainder of the experiment. All mice received three rounds of treatment with CRT (0.132 mg/mouse cisplatin and 8 Gy radiation, weekly starting at day 11). Tumor volume is mm^3.
FIG. 19 depicts the effects of DCA plus oxamate vs the effects of prodrug 1 or prodrug 2 on the responses of HPV+E6E7 Ras tumor to CRT. Tumors were initiated by injecting 0.5×10^6 E6/E7/Ras MOEs cells. After 11 days, a treatment with DCA (6 mg/mouse) plus oxamate (2 mg/mouse), or prodrug 1 (7.6 mg/mouse), or prodrug 2 (7.6 mg/mouse) was initiated daily by i.p. on weekdays. The doses of DCA and oxamate were equal molar equivalents as would be released from the prodrugs. All mice received three rounds of treatment with CRT (0.132 mg/mouse cisplatin and 8 Gy radiation, weekly starting at day 11). Tumor volume is in mm^3.
The effects of various treatments on tumor responses were carried out by examining whether the treatment could improve tumor's response to CRT with a HPV positive HNSCCs mouse model. CRT is a standard treatment for HPV-positive HNSCC in the clinic (46). […] Applicants also used this model to investigate the effects of lactate on CRT-induced immune-mediated cancer clearance (46) and DCA's effect on the tumor's response to CRT (unpublished data). The literature reported dosages of DCA and oxamate were used (6,23,52,53)(41).
To study the effects of the prodrugs on tumor growth in vivo, C57Bl/6 immune-competent mice implanted with E6/E7/Ras MOEs cells were used as described previously (46). All experiments were performed in accordance with institutional and national guidelines and regulations with the protocol approved by the Animal Care and Use Committee at Sanford Research. Briefly, 1×10^6 tumor HPV+HNSCC cells were injected into the right subcutaneous flank of syngeneic male C57Bl/6 mice. Eleven days after tumor initiation, treatment was initiated daily on weekdays by i.p. injection of vehicle, DCA, Oxamate, DCA+oxamate, prodrug 1, or prodrug 2. All mice received three rounds of treatment with cisplatin/radiation therapy (CRT: 0.132 mg/mouse cisplatin and 8 Gy radiation, weekly starting at day 11). Tumor dimensions were measured weekly to monitor growth. Mice with tumors reaching a volume of 3000 mm^3 or becoming substantially emaciated were euthanized.
To study the effects of the new prodrugs on tumor growth in vivo, C57Bl/6 immune-competent mice were used. Tumors were established on the right flank of the leg. After 11 days, treatment was initiated with daily i.p. injection of vehicle, AT-N4-001, or AT-N4-002. […]

E6E7/Ras MTE cells = assay: Clonogenic growth (colony formation); type: cell-based, mouse; settings: 5 mM prodrugs, 10 mM DCA, 7 days, vs DMSO
Experimental: FIG. 4 illustrates prodrugs AT-N4-001 and AT-N4-002 inhibiting cell proliferation and colony growth of E6E7/Ras MTE cells. (A) E6E7/Ras MTE cultures were treated with DMSO (Con), AT-N4-001, or AT-N4-[…] 002 at the indicated concentration for one day. Live cell number was then determined using a trypan blue exclusion assay. (B) E6E7/Ras MTE cells were seeded on 100-mm plate at 500 cells per plate (in triplicate). After one day, cells were treated as indicated and allowed to grow until colonies of untreated controls reached 50 or more cells (7 days). Plates were stained with Coomassie blue to visualize the colonies. (C) Quantification of colonies described in B. Colonies with more than 15 cells were counted.
E6E7/Ras MTE cells are mouse tonsilar epithelial cells that have been transformed by HPV oncogenes E6 and E7 together with activated ras. They form tumors in mice and are a model of human HPV+HNSCC. These cells were treated in culture with either vehicle control (DMSO), AT-N4-001, or AT-N4-002 at concentrations of 1 mM, 2.5 mM and 5 mM for one day. Live cells were counted using a hemocytometer (FIG. 4A). […] The effects of the compounds on clonogenic growth of the cells were also tested. E6/E7/Ras MTE cells were seeded in 100 mm plates in triplicate, and the next day cells were treated with either vehicle control DMSO, 5 mM AT-N4-001, 5 mM AT-N4-002, or 10 mM DCA. DCA was used at a twice the concentration because the prodrugs each carry two molecules of DCA.

E6E7/Ras cells = assay: Lactate secretion into culture medium, enzyme based assay; type: cell-based, mouse; settings: 5 mM each, 4 hours
Experimental: FIG. 5 illustrates the reduction of lactate secretion in cultured cells by prodrugs AT-N4-001 and AT-N4-002. E6E7Ras cells were plated in 100 mm dishes and grown to confluence. The medium was changed to bicarbonate-free DMEM-10% FBS with or without the indicated treatments (5 mM each). Four hours later the medium was collected and lactate was measured using an enzyme based assay from Eton Bioscience. Con indicates the control samples for the DCA and Oxamate samples. DMSO indicates the vehicle only control for the AT-N4-001 and AT-N4-002 prodrug samples.
AT-N4-001 and AT-N4-002 should each release two molecules of DCA and one molecule of oxamate. Both DCA and oxamate are expected to reduce cellular lactate production. Therefore, we examined the changes in lactate after treatment of E6E7/Ras cells with the prodrugs. E6E7/Ras cells were seeded into 100 mm dishes and the next day treated with 5 mM AT-N4-001, 5 mM AT-N4-002, 5 mM DCA plus 5 mM oxamate, or 5 mM DCA alone. Culture medium was collected after 4 hours of treatment and lactate levels were determined (FIG. 5). […] To confirm the effects of these compounds on lactate production, the extra cellular acidification rate (ECAR) was measured using a Seahorse XF24 Extracellular Flux analyzer. Since lactate is transported from cells together with a proton, acidification of the culture medium (ECAR) is an estimate of lactate production and the glycolytic rate of cells. In the experiment shown in FIG. 6A, ECAR measurements were initiated in the absence of glucose. At point A, glucose was added and ECAR measurements continued. […] At point B, additional glucose along with vehicle (control), DCA plus oxamate, or AT-N4-002 was added. […] This is shown by a bar graph in FIG. 6B.

PDK = settings: reported (26); read-out: Ki value of DCA for PDK; cited from earlier work
[2] = clinical use, reference (24); cited from earlier work
mammalian LDH = settings: reference (47); read-out: Ki value of oxamate for mammalian LDH; cited from earlier work
[3] = tested on: nasopharyngeal carcinoma cells / normal nasopharyngeal epithelial cells; settings: reference (44); cited from earlier work
[4] = reference (44); cited from earlier work

O=C([O-])C(Cl)Cl.[Na+] [DCA, dichloroacetic acid sodium salt, reference compound]
tumor's response to CRT (tumor volume, FIG. 18) [1]: improved tumor's response to CRT
effectiveness of DCA versus oxamate in improving response to CRT ([1]; FIG. 18, DCA 6 mg/mouse, with CRT): more effective than oxamate
colony size (FIG. 4B) (E6E7/Ras MTE cells): approximately equal reductions in colony size
lactate production (culture medium, FIG. 5) (E6E7/Ras cells): reduces lactate production but to a lesser extent than the prodrugs
Ki (PDK): 10 to 250 µM
clinical safety and tolerability [2]: safe and well tolerated with relatively modest toxicities

NC(=O)C(=O)O [oxamate, oxamic acid sodium salt]
tumor's response to CRT (tumor volume, FIG. 18) [1]: improved tumor's response to CRT
Ki (mammalian LDH): 116 µM
nasopharyngeal carcinoma cell proliferation in vitro and in vivo [3]: significant suppression
toxicity to normal nasopharyngeal epithelial cells in vitro [3]: minimum toxicity
tolerability in mice [4]: well tolerated
